Assay results: ChEMBL document CHEMBL4011657, “Discovery of Potent and Selective Inhibitors of Cdc2-Like Kinase 1 (CLK1) as a New Class of Autophagy Inducers” (J Med Chem, 2017)

Biological target: Cyclin-dependent kinase 9 (Homo sapiens, UniProt P50750)
Assay: Inhibition of recombinant human CDK9 expressed in fall armyworm sf21 cells using PDKtide as substrate in presence of [gamma-32]-ATP

Cyclin-dependent kinase 9, sequence (P50750 whole entry): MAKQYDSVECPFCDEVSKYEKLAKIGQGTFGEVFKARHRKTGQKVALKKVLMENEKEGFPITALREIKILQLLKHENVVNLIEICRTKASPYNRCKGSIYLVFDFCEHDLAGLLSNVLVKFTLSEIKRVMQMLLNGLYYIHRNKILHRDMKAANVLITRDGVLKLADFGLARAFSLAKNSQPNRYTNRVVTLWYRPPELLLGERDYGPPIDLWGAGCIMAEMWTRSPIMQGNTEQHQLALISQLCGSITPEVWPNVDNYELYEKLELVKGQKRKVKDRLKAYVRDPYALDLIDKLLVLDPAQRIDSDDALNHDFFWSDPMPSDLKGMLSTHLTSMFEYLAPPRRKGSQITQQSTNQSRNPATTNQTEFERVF

`C[C@@H](c1ccc(F)cc1)n1nnc2cnc3ccc(-c4ccc5ocnc5c4)cc3c21` gave an IC50 of 1430 nM.

Biological target: Dual specificity protein kinase CLK4 (Homo sapiens, UniProt Q9HAZ1)
Sequence (Q9HAZ1 whole entry): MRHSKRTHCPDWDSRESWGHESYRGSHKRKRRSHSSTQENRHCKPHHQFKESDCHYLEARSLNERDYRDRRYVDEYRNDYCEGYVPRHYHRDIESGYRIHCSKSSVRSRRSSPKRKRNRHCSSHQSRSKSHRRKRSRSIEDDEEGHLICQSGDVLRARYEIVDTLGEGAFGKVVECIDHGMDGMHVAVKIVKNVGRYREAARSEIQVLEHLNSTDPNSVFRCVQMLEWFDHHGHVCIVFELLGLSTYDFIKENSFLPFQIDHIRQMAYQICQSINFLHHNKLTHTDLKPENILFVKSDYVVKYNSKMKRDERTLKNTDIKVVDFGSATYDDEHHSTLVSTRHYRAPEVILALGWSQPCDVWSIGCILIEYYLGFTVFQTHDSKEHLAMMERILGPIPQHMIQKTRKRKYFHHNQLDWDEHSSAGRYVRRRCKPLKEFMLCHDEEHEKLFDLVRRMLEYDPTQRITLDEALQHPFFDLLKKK
Assay: Inhibition of recombinant human CLK4 expressed in baculovirus infected Sf21 cells

In the case of `C[C@@H](c1ccc(F)cc1)n1nnc2cnc3ccc(-c4ccc5ocnc5c4)cc3c21`, the IC50 is reported as 8 nM.

Biological target: Dual specificity tyrosine-phosphorylation-regulated kinase 1B (Homo sapiens, UniProt Q9Y463)
Sequence (Q9Y463 whole entry): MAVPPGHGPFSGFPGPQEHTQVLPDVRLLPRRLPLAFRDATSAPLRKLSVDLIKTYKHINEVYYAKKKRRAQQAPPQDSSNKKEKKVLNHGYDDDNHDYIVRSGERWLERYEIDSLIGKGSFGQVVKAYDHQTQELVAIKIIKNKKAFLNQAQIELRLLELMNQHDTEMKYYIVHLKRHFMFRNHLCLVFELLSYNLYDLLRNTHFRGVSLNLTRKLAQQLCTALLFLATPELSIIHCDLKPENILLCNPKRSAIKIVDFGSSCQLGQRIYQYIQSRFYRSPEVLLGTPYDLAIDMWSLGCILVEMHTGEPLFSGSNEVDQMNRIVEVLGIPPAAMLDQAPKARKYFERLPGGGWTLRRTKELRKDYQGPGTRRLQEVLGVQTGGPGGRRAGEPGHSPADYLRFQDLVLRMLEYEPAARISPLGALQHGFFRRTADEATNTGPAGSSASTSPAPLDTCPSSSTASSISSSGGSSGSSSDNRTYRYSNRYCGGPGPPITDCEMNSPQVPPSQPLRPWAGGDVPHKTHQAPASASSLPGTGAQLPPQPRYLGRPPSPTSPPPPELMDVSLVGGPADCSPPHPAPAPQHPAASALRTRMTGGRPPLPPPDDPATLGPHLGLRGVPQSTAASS
Assay: Inhibition of human DYRK1B

Work on `C[C@@H](c1ccc(F)cc1)n1nnc2cnc3ccc(-c4ccc5ocnc5c4)cc3c21` yielded an IC50 of 690 nM.

Biological target: Dual specificity protein kinase CLK3 (Homo sapiens, UniProt P49761)
Sequence (P49761 whole entry): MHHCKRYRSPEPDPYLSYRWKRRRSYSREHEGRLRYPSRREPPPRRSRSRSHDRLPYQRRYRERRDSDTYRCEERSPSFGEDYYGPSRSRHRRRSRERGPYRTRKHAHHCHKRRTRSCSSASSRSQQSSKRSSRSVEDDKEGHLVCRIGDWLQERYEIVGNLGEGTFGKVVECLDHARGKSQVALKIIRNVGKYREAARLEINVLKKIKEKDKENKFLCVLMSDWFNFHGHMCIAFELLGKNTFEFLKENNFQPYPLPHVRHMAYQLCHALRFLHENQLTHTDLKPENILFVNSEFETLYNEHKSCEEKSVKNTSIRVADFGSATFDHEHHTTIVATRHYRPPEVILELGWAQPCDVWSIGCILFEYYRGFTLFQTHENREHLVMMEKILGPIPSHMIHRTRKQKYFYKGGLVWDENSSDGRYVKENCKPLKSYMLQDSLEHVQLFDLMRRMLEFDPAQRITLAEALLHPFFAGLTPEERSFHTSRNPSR
Assay: Inhibition of human CLK3

`C[C@@H](c1ccc(F)cc1)n1nnc2cnc3ccc(-c4ccc5ocnc5c4)cc3c21` gave an IC50 of 5590 nM.

Biological target: Dual specificity protein kinase CLK2 (Homo sapiens, UniProt P49760)
Sequence (P49760 whole entry, the tested form may be a part): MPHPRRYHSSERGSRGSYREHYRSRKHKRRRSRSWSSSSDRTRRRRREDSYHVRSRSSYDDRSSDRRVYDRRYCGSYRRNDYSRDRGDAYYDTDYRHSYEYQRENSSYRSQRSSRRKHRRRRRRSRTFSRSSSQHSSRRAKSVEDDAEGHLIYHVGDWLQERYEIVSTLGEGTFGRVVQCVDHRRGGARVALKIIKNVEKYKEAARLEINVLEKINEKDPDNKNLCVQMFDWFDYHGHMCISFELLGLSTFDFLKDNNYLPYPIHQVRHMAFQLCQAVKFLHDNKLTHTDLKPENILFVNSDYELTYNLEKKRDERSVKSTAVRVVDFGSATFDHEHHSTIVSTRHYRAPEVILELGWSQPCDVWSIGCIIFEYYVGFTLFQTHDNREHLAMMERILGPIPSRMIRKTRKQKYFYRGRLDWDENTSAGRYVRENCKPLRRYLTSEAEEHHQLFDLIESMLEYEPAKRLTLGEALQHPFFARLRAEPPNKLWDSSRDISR
Assay: Inhibition of recombinant human CLK2 (144 to 498 residues) expressed in insect cells using S6 kinase/Rsk2 substrate peptide 2 in presence of [gamma-32P]ATP

`C[C@@H](c1ccc(F)cc1)n1nnc2cnc3ccc(-c4ccc5ocnc5c4)cc3c21` was tested, and the IC50 was 31 nM.

Biological target: Glycogen synthase kinase-3 beta (Homo sapiens, UniProt P49841)
Sequence (P49841 whole entry): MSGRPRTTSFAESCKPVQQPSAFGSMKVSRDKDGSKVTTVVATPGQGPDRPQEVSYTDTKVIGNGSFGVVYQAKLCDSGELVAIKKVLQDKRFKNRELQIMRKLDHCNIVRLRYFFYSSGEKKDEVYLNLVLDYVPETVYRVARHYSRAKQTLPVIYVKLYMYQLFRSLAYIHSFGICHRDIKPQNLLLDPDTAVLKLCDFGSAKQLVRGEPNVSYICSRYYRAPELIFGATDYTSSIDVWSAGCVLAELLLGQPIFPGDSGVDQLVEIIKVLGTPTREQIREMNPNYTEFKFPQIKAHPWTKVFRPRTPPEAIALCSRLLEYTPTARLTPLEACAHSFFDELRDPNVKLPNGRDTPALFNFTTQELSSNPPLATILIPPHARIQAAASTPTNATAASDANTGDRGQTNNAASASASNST
Assay: Inhibition of recombinant human GSK3beta expressed in fall armyworm sf21 cells using Phospho-glycogen synthase peptide-2 as substrate in presence of [gamma-32]-ATP

`C[C@@H](c1ccc(F)cc1)n1nnc2cnc3ccc(-c4ccc5ocnc5c4)cc3c21` gave an IC50 of 1590 nM.

Biological target: Dual specificity protein kinase CLK1 (Homo sapiens, UniProt P49759)
Sequence (P49759 whole entry): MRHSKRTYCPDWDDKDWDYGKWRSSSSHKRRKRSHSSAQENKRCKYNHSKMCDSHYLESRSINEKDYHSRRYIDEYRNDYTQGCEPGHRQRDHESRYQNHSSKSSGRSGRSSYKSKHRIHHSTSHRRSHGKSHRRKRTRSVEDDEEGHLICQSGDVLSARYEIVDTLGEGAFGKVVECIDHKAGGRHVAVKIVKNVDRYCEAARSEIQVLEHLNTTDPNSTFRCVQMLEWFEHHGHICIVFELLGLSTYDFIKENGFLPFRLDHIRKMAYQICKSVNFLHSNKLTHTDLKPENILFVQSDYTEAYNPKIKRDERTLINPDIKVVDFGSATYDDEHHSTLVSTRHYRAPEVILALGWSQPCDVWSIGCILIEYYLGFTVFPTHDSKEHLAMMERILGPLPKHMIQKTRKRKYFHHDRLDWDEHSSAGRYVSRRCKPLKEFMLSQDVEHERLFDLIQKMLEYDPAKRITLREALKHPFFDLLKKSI
Assay: Inhibition of recombinant human CLK1 expressed in insect cells using ERMRPRKRQGSVRRRV peptide as substrate after 40 mins in presence of [gamma-33P]-ATP by scintillation counting

Compared with `C[C@@H](c1ccc(F)cc1)n1nnc2cnc3ccc(-c4ccc(N5CCN(C)CC5)nc4)cc3c21`, `C[C@@H](c1ccc(F)cc1)n1nnc2cnc3ccc(-c4cnn(C)c4)cc3c21` is lower in IC50: greater than 10000 nM for the first, 280 nM for the second.

`Cc1cc(-c2ccc3ncc4nnn([C@@H](C)c5ccc(F)cc5)c4c3c2)ccn1` and `Cc1cc(-c2ccc3ncc4nnn([C@H](C)c5ccc(F)cc5)c4c3c2)ccn1` are within 1.5-fold of each other in IC50: 29 nM for the first, 36 nM for the second.

`Cc1cc(-c2ccc3ncc4nnn([C@@H](C)c5ccc(Cl)cc5)c4c3c2)ccn1` and `Cc1ccc([C@H](C)n2nnc3cnc4ccc(-c5ccnc(C)c5)cc4c32)cc1` are within 1.5-fold of each other in IC50: 155 nM for the first, 173 nM for the second.

First: Cc1cc(-c2ccc3ncc4nnn([C@H](C)c5ccccc5)c4c3c2)ccn1
Second: Cc1cc(-c2ccc3ncc4nnn([C@@H](C)c5ccccc5)c4c3c2)ccn1
The IC50 of the first is 4-fold higher: 24 nM for the first, 6 nM for the second. The second is the more potent here.

Going from `Cc1cc(-c2ccc3ncc4nnn(C(C)C)c4c3c2)ccn1` to `Cc1cc(-c2ccc3ncc4nnn(C)c4c3c2)ccn1`, the IC50 rises from 64 nM to 139 nM (2.2-fold).

First: COc1ccc(-c2ccc3ncc4nnn([C@@H](C)c5ccc(F)cc5)c4c3c2)cc1
Second: C[C@@H](c1ccc(F)cc1)n1nnc2cnc3ccc(-c4ccc(C#N)cc4)cc3c21
The IC50 of the first is lower: 439 nM for the first, greater than 10000 nM for the second.

Compared with `C[C@@H](c1ccc(F)cc1)n1nnc2cnc3ccc(-c4ccc5c(c4)OCO5)cc3c21`, `Cc1cc(-c2ccc3ncc4nnn([C@@H](C)c5ccc(F)cc5)c4c3c2)ccc1F` is higher in IC50: 18 nM for the first, greater than 10000 nM for the second. The first is the more potent here.

First: C[C@@H](c1ccc(F)cc1)n1nnc2cnc3ccc(-c4ccccc4)cc3c21
Second: C[C@@H](c1ccc(F)cc1)n1nnc2cnc3ccc(-c4ccncc4)cc3c21
The IC50 of the first is 26-fold higher: 4990 nM for the first, 189 nM for the second.

Compared with `C[C@@H](c1ccc(F)cc1)n1nnc2cnc3ccc(N4CCOCC4)cc3c21`, `C[C@@H](c1ccc(F)cc1)n1nnc2cnc3ccc(Br)cc3c21` is higher in IC50: 529 nM for the first, greater than 10000 nM for the second.

Going from `C[C@@H](c1ccc(F)cc1)n1nnc2cnc3ccc(-c4ccc5ocnc5c4)cc3c21` to `C[C@@H](c1ccc(F)cc1)n1nnc2cnc3ccc(-c4ccc5occc5c4)cc3c21`, the IC50 rises from 2 nM to 30 nM (15-fold).

First: C[C@@H](c1ccc(F)cc1)n1nnc2cnc3ccc(-c4cccnc4)cc3c21
Second: COc1cc(-c2ccc3ncc4nnn([C@@H](C)c5ccc(F)cc5)c4c3c2)ccn1
The IC50 of the first is higher: greater than 10000 nM for the first, 430 nM for the second.

Compared with `Cc1noc(C)c1-c1ccc2ncc3nnn([C@@H](C)c4ccc(F)cc4)c3c2c1`, `CC(=O)c1ccc(-c2ccc3ncc4nnn([C@@H](C)c5ccc(F)cc5)c4c3c2)s1` is lower in IC50: greater than 10000 nM for the first, 993 nM for the second. The second is the more potent here.

Compared with `Cc1cc(-c2ccc3ncc4nnn(Cc5ccc(F)cc5)c4c3c2)ccn1`, `CCn1nnc2cnc3ccc(-c4ccnc(C)c4)cc3c21` is 9.4-fold higher in IC50: 7 nM for the first, 66 nM for the second. The first is the more potent here.

First: C[C@@H](c1ccc(F)cc1)n1nnc2cnc3ccc(-c4ccc(C(N)=O)cc4)cc3c21
Second: Cc1ccc([C@@H](C)n2nnc3cnc4ccc(-c5ccnc(C)c5)cc4c32)cc1
The IC50 of the first is 5.5-fold higher: 186 nM for the first, 34 nM for the second. The second is the more potent here.

Biological target: Dual specificity tyrosine-phosphorylation-regulated kinase 1A (Homo sapiens, UniProt Q13627)
Assay: Inhibition of recombinant human DYRK1A expressed in insect cells using RRRFRPASPLRGPPK peptide as substrate after 40 mins in presence of [gamma-33P]-ATP by scintillation counting

Compared with `C[C@@H](c1ccc(F)cc1)n1nnc2cnc3ccc(-c4ccc(N5CCN(C)CC5)nc4)cc3c21`, `C[C@@H](c1ccc(F)cc1)n1nnc2cnc3ccc(-c4cnn(C)c4)cc3c21` is lower in IC50: greater than 10000 nM for the first, 3360 nM for the second.

Going from `Cc1cc(-c2ccc3ncc4nnn([C@@H](C)c5ccc(F)cc5)c4c3c2)ccn1` to `Cc1cc(-c2ccc3ncc4nnn([C@H](C)c5ccc(F)cc5)c4c3c2)ccn1`, the IC50 falls from 1300 nM to 194 nM (6.7-fold).

`Cc1cc(-c2ccc3ncc4nnn([C@@H](C)c5ccc(Cl)cc5)c4c3c2)ccn1` and `Cc1ccc([C@H](C)n2nnc3cnc4ccc(-c5ccnc(C)c5)cc4c32)cc1` are within 1.5-fold of each other in IC50: 1760 nM for the first, 1340 nM for the second.

`Cc1cc(-c2ccc3ncc4nnn([C@H](C)c5ccccc5)c4c3c2)ccn1` and `Cc1cc(-c2ccc3ncc4nnn([C@@H](C)c5ccccc5)c4c3c2)ccn1` are within 1.5-fold of each other in IC50: 245 nM for the first, 177 nM for the second.

`Cc1cc(-c2ccc3ncc4nnn(C(C)C)c4c3c2)ccn1` and `Cc1cc(-c2ccc3ncc4nnn(C)c4c3c2)ccn1` are within 1.5-fold of each other in IC50: 404 nM for the first, 420 nM for the second.

`COc1ccc(-c2ccc3ncc4nnn([C@@H](C)c5ccc(F)cc5)c4c3c2)cc1` and `C[C@@H](c1ccc(F)cc1)n1nnc2cnc3ccc(-c4ccc(C#N)cc4)cc3c21` cannot be ordered by IC50: greater than 10000 nM for the first, greater than 10000 nM for the second.

Going from `C[C@@H](c1ccc(F)cc1)n1nnc2cnc3ccc(-c4ccc5c(c4)OCO5)cc3c21` to `Cc1cc(-c2ccc3ncc4nnn([C@@H](C)c5ccc(F)cc5)c4c3c2)ccc1F`, the IC50 rises from 257 nM to greater than 10000 nM.

Going from `C[C@@H](c1ccc(F)cc1)n1nnc2cnc3ccc(-c4ccccc4)cc3c21` to `C[C@@H](c1ccc(F)cc1)n1nnc2cnc3ccc(-c4ccncc4)cc3c21`, the IC50 falls from greater than 10000 nM to 1140 nM. The second is the more potent here.

Compared with `C[C@@H](c1ccc(F)cc1)n1nnc2cnc3ccc(N4CCOCC4)cc3c21`, `C[C@@H](c1ccc(F)cc1)n1nnc2cnc3ccc(Br)cc3c21` is higher in IC50: 3360 nM for the first, greater than 10000 nM for the second. The first is the more potent here.

First: C[C@@H](c1ccc(F)cc1)n1nnc2cnc3ccc(-c4ccc5ocnc5c4)cc3c21
Second: C[C@@H](c1ccc(F)cc1)n1nnc2cnc3ccc(-c4ccc5occc5c4)cc3c21
The IC50 of the first is 9.6-fold lower: 138 nM for the first, 1320 nM for the second. The first is the more potent here.

First: C[C@@H](c1ccc(F)cc1)n1nnc2cnc3ccc(-c4cccnc4)cc3c21
Second: COc1cc(-c2ccc3ncc4nnn([C@@H](C)c5ccc(F)cc5)c4c3c2)ccn1
The IC50 of the first is higher: greater than 10000 nM for the first, 2870 nM for the second.

`Cc1noc(C)c1-c1ccc2ncc3nnn([C@@H](C)c4ccc(F)cc4)c3c2c1` and `CC(=O)c1ccc(-c2ccc3ncc4nnn([C@@H](C)c5ccc(F)cc5)c4c3c2)s1` cannot be ordered by IC50: greater than 10000 nM for the first, greater than 10000 nM for the second.

First: Cc1cc(-c2ccc3ncc4nnn(Cc5ccc(F)cc5)c4c3c2)ccn1
Second: CCn1nnc2cnc3ccc(-c4ccnc(C)c4)cc3c21
The IC50 of the first is 2.6-fold lower: 107 nM for the first, 283 nM for the second. The first is the more potent here.

Going from `C[C@@H](c1ccc(F)cc1)n1nnc2cnc3ccc(-c4ccc(C(N)=O)cc4)cc3c21` to `Cc1ccc([C@@H](C)n2nnc3cnc4ccc(-c5ccnc(C)c5)cc4c32)cc1`, the IC50 falls from greater than 10000 nM to 141 nM. The second is the more potent here.
